Measurements from the NIST ThermoML archive (doi:10.1016/j.jct.2003.11.008).

Assays:
[1] = xn = mol fraction of the nth substance listed; conditions: 318.15 K, 101.3 kPa, Liquid
[2] = excess molar enthalpy (molar enthalpy of mixing); xn = mol fraction of the nth substance listed; conditions: 318.15 K, 101.3 kPa, Liquid

CCCCCOC(C)=O [pentyl ethanoate] + CCCCCCCCCCC
Conditions	excess molar enthalpy [kJ/mol]	excess molar volume [m3/mol]
[1], x1 = 0.0737	–	2.57e-07
[1], x1 = 0.1355	–	4.05e-07
[1], x1 = 0.2015	–	5.38e-07
[1], x1 = 0.2641	–	6.43e-07
[1], x1 = 0.3197	–	7.07e-07
[1], x1 = 0.3776	–	7.48e-07
[1], x1 = 0.4395	–	7.8e-07
[1], x1 = 0.4861	–	7.92e-07
[1], x1 = 0.5386	–	7.87e-07
[1], x1 = 0.5852	–	7.75e-07
[1], x1 = 0.6345	–	7.38e-07
[1], x1 = 0.6828	–	6.92e-07
[1], x1 = 0.713	–	6.43e-07
[1], x1 = 0.8089	–	4.89e-07
[1], x1 = 0.8864	–	3.26e-07
[1], x1 = 0.9483	–	1.64e-07
[2], x1 = 0.083	0.359	–
[2], x1 = 0.1513	0.578	–
[2], x1 = 0.225	0.774	–
[2], x1 = 0.2965	0.926	–
[2], x1 = 0.3642	1.03	–
[2], x1 = 0.4271	1.08	–
[2], x1 = 0.4836	1.1	–
[2], x1 = 0.5356	1.1	–
[2], x1 = 0.5749	1.06	–
[2], x1 = 0.6055	1.03	–
[2], x1 = 0.6529	0.962	–
[2], x1 = 0.7058	0.876	–
[2], x1 = 0.7614	0.762	–
[2], x1 = 0.8186	0.627	–
[2], x1 = 0.8782	0.452	–
[2], x1 = 0.9384	0.258	–

CCCCCOC(C)=O [pentyl ethanoate] + CCCCCCCCCCCCC
Conditions	excess molar enthalpy [kJ/mol]	excess molar volume [m3/mol]
[1], x1 = 0.0955	–	3.07e-07
[1], x1 = 0.1575	–	4.63e-07
[1], x1 = 0.2323	–	6.22e-07
[1], x1 = 0.2961	–	7.29e-07
[1], x1 = 0.3517	–	7.96e-07
[1], x1 = 0.4152	–	8.59e-07
[1], x1 = 0.4689	–	8.87e-07
[1], x1 = 0.5228	–	8.91e-07
[1], x1 = 0.5724	–	8.76e-07
[1], x1 = 0.6226	–	8.35e-07
[1], x1 = 0.667	–	7.77e-07
[1], x1 = 0.7036	–	7.29e-07
[1], x1 = 0.7416	–	6.77e-07
[1], x1 = 0.8311	–	5.02e-07
[1], x1 = 0.8985	–	3.43e-07
[1], x1 = 0.9564	–	1.66e-07
[2], x1 = 0.0653	0.319	–
[2], x1 = 0.1352	0.576	–
[2], x1 = 0.2036	0.798	–
[2], x1 = 0.2679	0.966	–
[2], x1 = 0.326	1.08	–
[2], x1 = 0.3795	1.16	–
[2], x1 = 0.4178	1.2	–
[2], x1 = 0.4635	1.23	–
[2], x1 = 0.5035	1.23	–
[2], x1 = 0.5376	1.21	–
[2], x1 = 0.5674	1.19	–
[2], x1 = 0.5679	1.17	–
[2], x1 = 0.6418	1.09	–
[2], x1 = 0.6886	1.01	–
[2], x1 = 0.7385	0.908	–
[2], x1 = 0.7897	0.792	–
[2], x1 = 0.8433	0.639	–
[2], x1 = 0.8966	0.453	–
[2], x1 = 0.9506	0.243	–

CCCOC(C)=O [propyl ethanoate] + CCCCCCC
Conditions	excess molar enthalpy [kJ/mol]	excess molar volume [m3/mol]
[1], x1 = 0.0727	–	3.32e-07
[1], x1 = 0.1288	–	4.98e-07
[1], x1 = 0.1829	–	6.45e-07
[1], x1 = 0.2463	–	7.68e-07
[1], x1 = 0.2995	–	8.38e-07
[1], x1 = 0.3536	–	8.87e-07
[1], x1 = 0.404	–	9.09e-07
[1], x1 = 0.463	–	9.23e-07
[1], x1 = 0.5069	–	9.1e-07
[1], x1 = 0.5618	–	8.85e-07
[1], x1 = 0.6574	–	7.96e-07
[1], x1 = 0.6914	–	7.52e-07
[1], x1 = 0.7928	–	5.61e-07
[1], x1 = 0.8765	–	3.62e-07
[1], x1 = 0.9436	–	1.75e-07
[2], x1 = 0.0692	0.345	–
[2], x1 = 0.1449	0.633	–
[2], x1 = 0.2229	0.884	–
[2], x1 = 0.2968	1.05	–
[2], x1 = 0.3635	1.16	–
[2], x1 = 0.4256	1.22	–
[2], x1 = 0.484	1.24	–
[2], x1 = 0.535	1.22	–
[2], x1 = 0.5539	1.19	–
[2], x1 = 0.6002	1.13	–
[2], x1 = 0.6528	1.05	–
[2], x1 = 0.6987	0.956	–
[2], x1 = 0.7526	0.828	–
[2], x1 = 0.8089	0.659	–
[2], x1 = 0.8635	0.493	–
[2], x1 = 0.9048	0.354	–
[2], x1 = 0.9537	0.185	–

CCCOC(C)=O [propyl ethanoate] + CCCCCCCCC
Conditions	excess molar enthalpy, [2] [kJ/mol]	excess molar volume, [1] [m3/mol]
x1 = 0.0866	0.456	3.76e-07
x1 = 0.1486	–	5.74e-07
x1 = 0.1795	0.798	–
x1 = 0.2182	–	7.77e-07
x1 = 0.2657	1.07	–
x1 = 0.2774	–	8.96e-07
x1 = 0.344	1.23	–
x1 = 0.3451	–	9.99e-07
x1 = 0.4053	–	1.075e-06
x1 = 0.4115	1.33	–
x1 = 0.4561	–	1.101e-06
x1 = 0.4797	1.38	–
x1 = 0.5089	–	1.111e-06
x1 = 0.5358	1.37	–
x1 = 0.5631	–	1.094e-06
x1 = 0.5815	1.34	–
x1 = 0.6115	–	1.058e-06
x1 = 0.6251	1.29	–
x1 = 0.6577	–	1.012e-06
x1 = 0.6703	1.2	–
x1 = 0.7051	–	9.38e-07
x1 = 0.7182	1.1	–
x1 = 0.7328	–	8.95e-07
x1 = 0.7662	0.974	–
x1 = 0.8182	0.826	–
x1 = 0.8254	–	6.64e-07
x1 = 0.8684	0.65	–
x1 = 0.8966	–	4.35e-07
x1 = 0.9158	0.441	–
x1 = 0.9496	–	2.29e-07
x1 = 0.9598	0.232	–

CCCCCCCCCCCCC [tridecane] + CCCCOC(C)=O
Conditions	excess molar enthalpy [kJ/mol]	excess molar volume [m3/mol]
[1], x2 = 0.1024	–	3.78e-07
[1], x2 = 0.1769	–	5.73e-07
[1], x2 = 0.2511	–	7.35e-07
[1], x2 = 0.3192	–	8.56e-07
[1], x2 = 0.3845	–	9.36e-07
[1], x2 = 0.4434	–	9.93e-07
[1], x2 = 0.5021	–	1.014e-06
[1], x2 = 0.5481	–	1.023e-06
[1], x2 = 0.6023	–	1.006e-06
[1], x2 = 0.6495	–	9.59e-07
[1], x2 = 0.6914	–	9.14e-07
[1], x2 = 0.7346	–	8.49e-07
[1], x2 = 0.7647	–	7.97e-07
[1], x2 = 0.8473	–	5.94e-07
[1], x2 = 0.9072	–	3.95e-07
[1], x2 = 0.9586	–	1.65e-07
[2], x2 = 0.0771	0.382	–
[2], x2 = 0.166	0.712	–
[2], x2 = 0.2551	0.995	–
[2], x2 = 0.3371	1.2	–
[2], x2 = 0.405	1.31	–
[2], x2 = 0.4672	1.36	–
[2], x2 = 0.5179	1.38	–
[2], x2 = 0.5589	1.36	–
[2], x2 = 0.5984	1.34	–
[2], x2 = 0.6058	1.33	–
[2], x2 = 0.64	1.28	–
[2], x2 = 0.6863	1.2	–
[2], x2 = 0.7361	1.08	–
[2], x2 = 0.7879	0.939	–
[2], x2 = 0.8426	0.766	–
[2], x2 = 0.8971	0.545	–
[2], x2 = 0.9531	0.286	–
